This test deals with ROCK2 (Homo sapiens, UniProt O75116). Nature of the test: ROCK assay: phosphorylation of FITC peptide substrate, LABCHIP 3000 mobility shift. The class given is biochemical. The following applies: 5 μM ATP, 1.5 μM peptide substrate; read-out: ROCK2 Activity (ROCK IC50 range). In outline: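 IC50 values come from curve-fitting percent kinase inhibition across a compound dilution series. The reaction is started with Rho kinase variant in HEPES pH 7.5 buffer with MgCl2, Brij-35 and DTT, with 5 μM ATP, 1.5 μM FITC-labelled peptide and under 2% DMSO. After EDTA quench, product and substrate are separated by microfluidic mobility shift.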
Sequence of ROCK2 (O75116 whole entry, species assumed): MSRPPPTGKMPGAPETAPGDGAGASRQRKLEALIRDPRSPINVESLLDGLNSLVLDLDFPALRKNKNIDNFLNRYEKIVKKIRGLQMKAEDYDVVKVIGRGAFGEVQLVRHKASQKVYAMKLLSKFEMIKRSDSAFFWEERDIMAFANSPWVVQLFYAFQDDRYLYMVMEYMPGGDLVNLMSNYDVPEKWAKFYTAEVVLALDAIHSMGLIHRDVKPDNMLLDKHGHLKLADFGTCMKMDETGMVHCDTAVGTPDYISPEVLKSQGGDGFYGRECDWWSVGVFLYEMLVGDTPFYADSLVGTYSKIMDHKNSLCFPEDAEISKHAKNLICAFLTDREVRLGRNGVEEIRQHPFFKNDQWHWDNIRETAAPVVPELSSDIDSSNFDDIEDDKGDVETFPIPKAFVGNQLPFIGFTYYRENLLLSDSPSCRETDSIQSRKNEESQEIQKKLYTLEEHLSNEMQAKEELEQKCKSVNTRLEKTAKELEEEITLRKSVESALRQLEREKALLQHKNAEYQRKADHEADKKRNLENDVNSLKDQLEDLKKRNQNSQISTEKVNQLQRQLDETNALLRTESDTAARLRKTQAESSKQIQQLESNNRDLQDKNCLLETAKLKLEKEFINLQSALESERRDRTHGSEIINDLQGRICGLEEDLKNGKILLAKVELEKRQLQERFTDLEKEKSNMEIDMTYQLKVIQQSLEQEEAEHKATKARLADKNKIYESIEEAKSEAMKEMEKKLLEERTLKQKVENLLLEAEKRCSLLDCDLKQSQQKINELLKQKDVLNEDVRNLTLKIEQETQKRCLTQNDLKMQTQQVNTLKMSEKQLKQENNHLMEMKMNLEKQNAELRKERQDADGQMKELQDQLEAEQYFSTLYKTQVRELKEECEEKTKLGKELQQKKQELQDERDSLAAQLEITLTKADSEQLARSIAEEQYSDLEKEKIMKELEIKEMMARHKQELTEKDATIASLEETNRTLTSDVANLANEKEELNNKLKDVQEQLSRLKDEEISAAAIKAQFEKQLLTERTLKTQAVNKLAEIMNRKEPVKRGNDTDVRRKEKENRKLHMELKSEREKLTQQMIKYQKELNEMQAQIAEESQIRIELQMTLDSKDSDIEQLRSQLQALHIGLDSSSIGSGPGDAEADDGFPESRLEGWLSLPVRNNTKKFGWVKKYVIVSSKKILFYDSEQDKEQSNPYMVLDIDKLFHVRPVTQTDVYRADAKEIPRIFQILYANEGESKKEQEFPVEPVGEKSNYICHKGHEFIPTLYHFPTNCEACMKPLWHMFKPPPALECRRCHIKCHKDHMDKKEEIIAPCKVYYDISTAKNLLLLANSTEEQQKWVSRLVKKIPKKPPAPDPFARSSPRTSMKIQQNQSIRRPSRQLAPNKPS

Molecules are shown by their SMILES. Structures can show the parent of a compound that is named as a salt.

As a reminder, the IC50 is the point on the concentration scale where inhibition reaches its midpoint. As for `Cc1sc(N2CCC(F)(F)C2)nc1C(=O)NC1CC2(C1)CC(c1n[nH]c(=O)c3ccccc13)C2` [Example 54, 2-(3,3-difluoropyrrolidin-1-yl)-5-methyl-N-((aR)-6-(4-oxo-3,4-dihydrophthalazin-1-yl)spiro[3.3]heptan-2-yl)thiazole-4-carboxamide], the 50% inhibitory concentration (IC50) was in the range of 0.2 to 2 nM.

Consider `O=C(C1CC2(C1)CC(c1n[nH]c(=O)c3ccccc13)C2)N1CCc2ccccc21` (centres unmarked) [Example 46, 4-(6-(Indoline-1-carbonyl)spiro[3.3]heptan-2-yl)phthalazin-1(2H)-one(2H)-one], for which the IC50 fell in the range of 100 to 2100 nM.

On to `COc1ccc2c(C(=O)NC3CC4(C3)CC(c3n[nH]c(=O)c5ccccc35)C4)nn(CC(C)(C)O)c2c1` [Example 62, 1-(2-hydroxy-2-methylpropyl)-6-methoxy-N-((aR)-6-(4-oxo-3,4-dihydrophthalazin-1-yl)spiro[3.3]heptan-2-yl)-1H-indazole-3-carboxamide], for which the IC50 lay within 0.2 to 2 nM.

As for `[H][C@]1(c2n[nH]c(=O)c3ccccc32)C[C@]2(C[C@@H](NC(=O)c3ccc4[nH]cnc4c3)C2)C1` (stereo partly drawn) [Example 308, N-((aR)-6-(4-oxo-3,4-dihydrophthalazin-1-yl)spiro[3.3]heptan-2-yl)-1H-benzo[d] imidazole-5-carboxamide], the half-inhibitory concentration (IC50) lay within 5.1 to 15 nM.

`CC(C)(C)OC(=O)NCCn1cc(C(=O)NC2CC3(C2)CC(c2n[nH]c(=O)c4ccccc24)C3)cn1` [Example 106, tert-butyl (2-(4-(((aR)-6-(4-oxo-3,4-dihydrophthalazin-1-yl)spiro[3.3]heptan-2-yl)carbamoyl)-1H-pyrazol-1-yl)ethyl)carbamate]: the concentration for half-maximal inhibition (IC50) was 100 to 2100 nM.

`[H][C@]1(c2n[nH]c(=O)c3ccccc32)C[C@]2(C[C@@H](NC(=O)c3cnc4c(F)cc(F)cn34)C2)C1` (stereo partly drawn) [Example 411, 6,8-difluoro-N-((aR)-6-(4-oxo-3,4-dihydrophthalazin-1-yl)spiro[3.3]heptan-2-yl)imidazo[1,2-a]pyridine-3-carboxamide]: the concentration for half-maximal inhibition (IC50) lay in the range of 5.1 to 15 nM.

Regarding `COCCOc1ccc2c(C(=O)NC3CC4(C3)CC(c3n[nH]c(=O)c5ccccc35)C4)cnn2c1` (stereo not drawn) [Example 179, 6-(2-methoxyethoxy)-N-((αR)-6-(4-oxo-3,4-dihydrophthalazin-1-yl)spiro[3.3]heptan-2-yl)pyrazolo[1,5-α]pyridine-3-carboxamide], the 50% inhibitory concentration (IC50) was 0.2 to 2 nM.

On to `CCn1nccc1C(=O)NC1CC2(C1)CC(c1n[nH]c(=O)c3ccccc13)C2` [Example 285, 1-ethyl-N-((aR)-6-(4-oxo-3,4-dihydrophthalazin-1-yl)spiro[3.3]heptan-2-yl)-1H-pyrazole-5-carboxamide], for which the IC50 is 15.1 to 100 nM.

In the case of `[H][C@]1(c2n[nH]c(=O)c3ccccc32)C[C@]2(C[C@@H](NC(=O)c3cnc(O)c(Cl)c3)C2)C1` (stereo partly drawn) [Example 347, 5-chloro-6-hydroxy-N-((aR)-6-(4-oxo-3,4-dihydrophthalazin-1-yl)spiro[3.3]heptan-2-yl)nicotinamide], the 50% inhibitory concentration (IC50) lay in the range of 100 to 2100 nM.

Regarding `[H][C@]1(c2n[nH]c(=O)c3ccccc32)C[C@]2(C[C@@H](NC(=O)c3cnn4cc(OCCO)ccc34)C2)C1` (some centres unmarked) [Example 181], the IC50 was 0.2 to 2 nM.

For `Cn1cc(-c2ccc3c(c2)CN(C(=O)NC2CC4(C2)CC(c2n[nH]c(=O)c5ccccc25)C4)C3)cn1` [Example 250, 5-(1-methyl-1H-pyrazol-4-yl)-N-((aR)-6-(4-oxo-3,4-dihydrophthalazin-1-yl)spiro[3.3]heptan-2-yl)isoindoline-2-carboxamide], the half-inhibitory concentration (IC50) is 5.1 to 15 nM.

For the molecule `[H][C@]1(c2n[nH]c(=O)c3ccccc32)C[C@]2(C[C@@H](NC(=O)c3ccc(-c4cnn(C(F)F)c4)c(F)c3)C2)C1` (stereo partly drawn) [Example 428, 4-(1-(difluoromethyl)-1H-pyrazol-4-yl)-3-fluoro-N-((aR)-6-(4-oxo-3,4-dihydrophthalazin-1-yl)spiro[3.3]heptan-2-yl)benzamide], the IC50 lay within 5.1 to 15 nM.

For the molecule `CC(C)(O)Cn1ccc(C(=O)NC2CC3(C2)CC(c2n[nH]c(=O)c4ccccc24)C3)n1` [Example 30, 1-(2-hydroxy-2-methylpropyl)-N-[(aR)-6-(4-oxo-3,4-dihydrophthalazin-1-yl)spiro[3.3]heptan-2-yl]-1H-pyrazole-3-carboxamide], the IC50 was 15.1 to 100 nM.

Take `[H][C@]1(c2n[nH]c(=O)c3ccccc32)C[C@]2(C[C@@H](NC(=O)c3cnc4cc(OCCC(F)(F)F)ccn34)C2)C1` (stereo partly drawn) [Example 432, N-((aR)-6-(4-oxo-3,4-dihydrophthalazin-1-yl)spiro[3.3]heptan-2-yl)-7-(3,3,3-trifluoro-propoxy)imidazo[1,2-a]pyridine-3-carboxamide]: the 50% inhibitory concentration (IC50) was 2.01 to 5 nM.

As to `CC(C)(O)Cn1nc(C(=O)NC2CC3(C2)CC(c2n[nH]c(=O)c4ccccc24)C3)c2cc(F)ccc21` [Example 65, 5-fluoro-1-(2-hydroxy-2-methylpropyl)-N-((aR)-6-(4-oxo-3,4-dihydrophthalazin-1-yl)spiro[3.3]heptan-2-yl)-1H-indazole-3-carboxamide], the half-inhibitory concentration (IC50) is 2.01 to 5 nM.

With `[H][C@]1(c2n[nH]c(=O)c3ccccc32)C[C@]2(C[C@@H](NC(=O)c3ccc(-c4cnn(C)c4)c(F)c3)C2)C1` (stereo partly drawn) [Example 423, 3-fluoro-4-(1-methyl-1H-pyrazol-4-yl)-N-((aR)-6-(4-oxo-3,4-dihydrophthalazin-1-yl)spiro[3.3]heptan-2-yl)benzamide], the half-maximal inhibitory concentration (IC50) lay in the range of 2.01 to 5 nM.

`COc1ncc(-c2ccc3c(C(=O)NC4CC5(C4)CC(c4n[nH]c(=O)c6ccccc46)C5)cnn3c2)cn1` [Example 210, 6-(2-methoxypyrimidin-5-yl)-N-((aR)-6-(4-oxo-3,4-dihydrophthalazin-1-yl)spiro[3.3]heptan-2-yl)pyrazolo[1,5-a]pyridine-3-carboxamide]: the half-inhibitory concentration (IC50) was in the range of 2.01 to 5 nM.

In the case of `[H][C@]1(c2n[nH]c(=O)c3ccccc32)C[C@]2(C[C@@H](NC(=O)c3ccc4ccn(C)c4c3)C2)C1` (stereo partly drawn) [Example 367, 1-methyl-N-((aR)-6-(4-oxo-3,4-dihydrophthalazin-1-yl)spiro[3.3]heptan-2-yl)-1H-indole-6-carboxamide], the 50% inhibitory concentration (IC50) is 5.1 to 15 nM.

As to `Cc1nn(-c2ccccc2)cc1C(=O)NC1CC2(C1)CC(c1n[nH]c(=O)c3ccccc13)C2` (centres unmarked) [Example 8, 3-methyl-N-[6-(4-oxo-3,4-dihydrophthalazin-1-yl)spiro[3.3]heptan-2-yl]-1-phenyl-1H-pyrazole-4-carboxamide], the IC50 was 15.1 to 100 nM.

Consider `[H][C@]1(c2n[nH]c(=O)c3ccccc32)C[C@]2(C[C@@H](NC(=O)c3cnc4cc(OC5CCS(=O)(=O)CC5)ccn34)C2)C1` (stereo partly drawn) [Example 431, 7-((1,1-dioxidotetrahydro-2H-thiopyran-4-yl)oxy)-N-((aR)-6-(4-oxo-3,4-dihydrophthalazin-1-yl)spiro[3.3]heptan-2-yl)imidazo[1,2-a]pyridine-3-carboxamide], for which the IC50 lay in the range of 0.2 to 2 nM.

Turning to `Cn1cc(-c2ccc3c(c2)CCN3C(=O)NC2CC3(C2)CC(c2n[nH]c(=O)c4ccccc24)C3)c(C(F)(F)F)n1` [Example 238, 5-(1-methyl-3-(trifluoromethyl)-1H-pyrazol-4-yl)-N-((aR)-6-(4-oxo-3,4-dihydrophthalazin-1-yl)spiro[3.3]heptan-2-yl)indoline-1-carboxamide], the IC50 was in the range of 2.01 to 5 nM.

Regarding `O=C(NC1CC2(C1)CC(c1n[nH]c(=O)c3ccccc13)C2)c1cnn2cc(OCCN3CCC(F)C3)ccc12` [Example 190, 6-(2-((S)-3-fluoropyrrolidin-1-yl)ethoxy)-N-((aR)-6-(4-oxo-3,4-dihydrophthalazin-1-yl)spiro[3.3]heptan-2-yl)pyrazolo[1,5-a]pyridine-3-carboxamide], the 50% inhibitory concentration (IC50) is 0.2 to 2 nM.

As for `O=C(NC1CC2(C1)CC(c1n[nH]c(=O)c3ccccc13)C2)c1cnn2cc(OC(CF)CF)ccc12` (stereo not drawn) [Example 131, 6-((1,3-difluoropropan-2-yl)oxy)-N-((αR)-6-(4-oxo-3,4-dihydrophthalazin-1-yl)spiro[3.3]heptan-2-yl)pyrazolo[1,5-α]pyridine-3-carboxamide], the IC50 was in the range of 0.2 to 2 nM.

Consider `Cc1nc(NC2CC2)sc1C(=O)NC1CC2(C1)CC(c1n[nH]c(=O)c3ccccc13)C2` [Example 42, 2-(cyclopropylamino)-4-methyl-N-[(aR)-6-(4-oxo-3,4-dihydrophthalazin-1-yl)spiro[3.3]heptan-2-yl]-1,3-thiazole-5-carboxamide], for which the concentration for half-maximal inhibition (IC50) was in the range of 15.1 to 100 nM.

Regarding `[H][C@]1(c2n[nH]c(=O)c3ccccc32)C[C@]2(C[C@@H](NC(=O)c3cnc4cc(-c5cnn(C6CCOCC6)c5)ccn34)C2)C1` (some centres unmarked) [Example 443], the IC50 fell in the range of 0.2 to 2 nM.

On to `[H][C@]1(c2n[nH]c(=O)c3ccccc32)C[C@]2(C[C@@H](NC(=O)c3cnc4cc(C)ccn34)C2)C1` (stereo partly drawn) [Example 412, 7-methyl-N-((aR)-6-(4-oxo-3,4-dihydrophthalazin-1-yl)spiro[3.3]heptan-2-yl)imidazo[1,2-a]pyridine-3-carboxamide], for which the IC50 was in the range of 2.01 to 5 nM.

Regarding `[H][C@]1(c2n[nH]c(=O)c3ccccc32)C[C@@]2(C[C@H](NC(=O)c3cc4cccc(OC)c4[nH]3)C2)C1` (stereo partly drawn) [Example 295, 7-methoxy-N-((aR)-6-(4-oxo-3,4-dihydrophthalazin-1-yl)spiro[3.3]heptan-2-yl)-1H-indole-2-carboxamide], the half-inhibitory concentration (IC50) lay within 5.1 to 15 nM.

On to `[H][C@]1(c2n[nH]c(=O)c3ccccc32)C[C@]2(C[C@@H](NC(=O)c3ccc(-c4cn[nH]c4)c(C)c3)C2)C1` (stereo partly drawn) [Example 418, 3-methyl-N-((aR)-6-(4-oxo-3,4-dihydrophthalazin-1-yl)spiro[3,3]heptan-2-yl)-4-(1H-pyrazol-4-yl)benzamide], for which the half-maximal inhibitory concentration (IC50) lay within 0.2 to 2 nM.

For the molecule `CC(C)(O)COc1ccc2c(C(=O)NC3CC4(C3)CC(c3n[nH]c(=O)c5ccccc35)C4)onc2c1` [Example 287, 6-(2-hydroxy-2-methylpropoxy)-N-((aR)-6-(4-oxo-3,4-dihydrophthalazin-1-yl)spiro[3.3]heptan-2-yl)benzo[c]isoxazole-3-carboxamide, TFA], the 50% inhibitory concentration (IC50) is 0.2 to 2 nM.

For the origin of these results see US9902702B2, “Spirocycloheptanes as inhibitors of rock” (BRISTOL-MYERS SQUIBB COMPANY, priority 2014, dated 2018).
